# Measurements reported in patent US12329802B2, “Focal treatment of prostate cancer” (Nymox Corporation, priority 2019, dated 2025).
# Where no end group is shown, it is not given here.
# Assays:
# [1] = tested on: low grade prostate cancer (Gleason grade 6); test: clinical study: hemi-prostate multifocal cancer with Gleason upgrade (Example 1); format: in vivo, human; details: for % Imp. (hemi-prostate multifocal cancer with Gleason upgrade): vs active surveillance control
# Method: (§1) In a series of clinical studies a total of 146 men with low grade prostate cancer (Gleason grade 6) were treated in the following manner. Patients were randomized and treated with a transrectal intraprostatic single injection of a composition comprising 2.5 mg FT (n=49), or a composition comprising 15 mg FT (n=48), or were subject to control active surveillance (n=49). After the first follow-up biopsy at 45 days post-randomization, 18 patients in the control active surveillance group crossed over to a single administration of a composition comprising 2.5 mg FT. Patients were followed for 5 years including biopsies at baseline, 45 days, 18, 36, and 60 months, and urological evaluations with PSA every 6 months. Patients with Gleason grade increase or who elected surgical or radiotherapeutic intervention exited the study and were still included in the data analysis. Percentage of normal biopsies in the baseline focus quadrant and median tumor grade and volume were assessed; progression was measured by clinical and pathological outcomes including Gleason grade in the entire prostate sampled as well as for the treated prostate lobe. Interventions associated with Gleason grade increase as well as total incidence for any intervention was assessed.
# [2] = tested on: low grade prostate cancer (Gleason grade 6); test: clinical study: hemi-prostate multifocal cancer with increase in Gleason primary pattern (Example 2); format: in vivo, human; details: for % Imp. (hemi-prostate multifocal cancer with increase in Gleason primary pattern): vs active surveillance control
# Method: as §1
# [3] = tested on: low grade prostate cancer (Gleason grade 6); test: clinical study: cancer treatment with new multifocal with increased Gleason grade in the hemi-prostate (Example 3); format: in vivo, human; details: for % Imp. (cancer treatment with new multifocal with increased Gleason grade in the hemi-prostate): vs active surveillance control
# Method: as §1
# This example evaluated the percentage of patients who had conventional cancer treatment (e.g., surgery, radiotherapy, and/or chemotherapy), and who and who had multifocal prostate cancer in the lobe (or hemi-prostate) in which the foci were initially treated with Gleason upgrade (cancer treatment with new multifocal with increased Gleason grade in the hemi-prostate).
# [4] = tested on: low grade prostate cancer (Gleason grade 6); test: clinical study: cancer treatment with new multifocal and an increase in Gleason grade primary pattern in the hemi-prostate (Example 4); format: in vivo, human; details: for % Imp. (cancer treatment with new multifocal and an increase in Gleason grade primary pattern in the hemi-prostate): vs active surveillance control
# Method: as §1
# This example evaluated the percentage of patients having conventional cancer treatment (surgery, radiotherapy, or chemotherapy), and having multifocal prostate cancer in the lobe (or hemi-prostate) in which the foci were initially treated with Gleason primary pattern (cancer treatment with new multifocal and an increase in Gleason grade primary pattern in the hemi-prostate).
# [5] = tested on: prostate glandular epithelial cells; test: tissue culture genetic array, in vitro; format: cell-based
# From the text: Use of FT is a preferred embodiment. FT is a new molecular entity which in vitro stimulates caspase pathways (activation of caspases 7, 8, and 10, caspase recruitment domains 6, 11, and 14, and DIABLO), tumor necrosis factor pathways (activation of TNF1, TNFSF6, TNFSF8, TNFSF9, CD70 ligands, and TNFRSF19L, TNFRSF25, TRAF2, TRAF3, TRAF4, TRAF6 receptors), and BCL pathways (activation of BIK, HRK, BCL2L10 and BCL3) in prostate glandular epithelial cells, based on tissue culture genetic array data. […] The apoptotic process leads to typical ultrastructural progressive changes of membranous disruption and swelling, progressively deepening nuclear invaginations with eventual membranous bleb formations and cell death and fragmentation into apoptotic bodies. Histologically, typical apoptotic changes with positive immunohistochemical staining of markers for apoptosis are found throughout the injected areas for up to several weeks after treatment.
# [6] = FT 2.5 mg, single transrectal intraprostatic injection, <= 18 mos from treatment
# [7] = FT 2.5 mg, single transrectal intraprostatic injection, <= 36 mos from treatment
# [8] = FT 2.5 mg, single transrectal intraprostatic injection, <= 48 mos from treatment
# [9] = FT 15 mg, single transrectal intraprostatic injection, <= 18 mos from treatment
# [10] = FT 15 mg, single transrectal intraprostatic injection, <= 36 mos from treatment
# [11] = FT 15 mg, single transrectal intraprostatic injection, <= 48 mos from treatment
# [12] = Pooled FT (2.5 mg and 15 mg), <= 18 mos from treatment
# [13] = Pooled FT (2.5 mg and 15 mg), <= 36 mos from treatment
# [14] = Pooled FT (2.5 mg and 15 mg), <= 48 mos from treatment
substance,measurement,setting,value
Ile-Asp-Gln-Gln-Val-Leu-Ser-Arg-Ile-Lys-Leu-Glu-Ile-Lys-Arg-Cys-Leu (IDQQVLSRIKLEIKRCL; also: trifluoroacetate salt) [FT],percentage of patients with hemi-prostate multifocal cancer with Gleason upgrade,[1]; [6],8.6%
same,percentage of patients with hemi-prostate multifocal cancer with Gleason upgrade,[1]; [7],16.7%
same,percentage of patients with hemi-prostate multifocal cancer with Gleason upgrade,[1]; [8],42.9%
same,% Imp. (hemi-prostate multifocal cancer with Gleason upgrade),"[1]; FT 2.5 mg, <= 18 mos",54.26%
same,% Imp. (hemi-prostate multifocal cancer with Gleason upgrade),"[1]; FT 2.5 mg, <= 36 mos",53.2%
same,% Imp. (hemi-prostate multifocal cancer with Gleason upgrade),"[1]; FT 2.5 mg, <= 48 mos",5.7%
same,percentage of patients with hemi-prostate multifocal cancer with Gleason upgrade,[1]; [9],5.7%
same,percentage of patients with hemi-prostate multifocal cancer with Gleason upgrade,[1]; [10],9.1%
same,percentage of patients with hemi-prostate multifocal cancer with Gleason upgrade,[1]; [11],13.3%
same,% Imp. (hemi-prostate multifocal cancer with Gleason upgrade),"[1]; FT 15 mg, <= 18 mos",69.7%
same,% Imp. (hemi-prostate multifocal cancer with Gleason upgrade),"[1]; FT 15 mg, <= 36 mos",74.5%
same,% Imp. (hemi-prostate multifocal cancer with Gleason upgrade),"[1]; FT 15 mg, <= 48 mos",70.8%
same,percentage of patients with hemi-prostate multifocal cancer with Gleason upgrade,[1]; [12],7.1%
same,percentage of patients with hemi-prostate multifocal cancer with Gleason upgrade,[1]; [13],13.0%
same,percentage of patients with hemi-prostate multifocal cancer with Gleason upgrade,[1]; [14],27.6%
same,% Imp. (hemi-prostate multifocal cancer with Gleason upgrade),"[1]; Pooled FT, <= 18 mos",62.2%
same,% Imp. (hemi-prostate multifocal cancer with Gleason upgrade),"[1]; Pooled FT, <= 36 mos",63.6%
same,% Imp. (hemi-prostate multifocal cancer with Gleason upgrade),"[1]; Pooled FT, <= 48 mos",39.3%
same,percentage of patients with hemi-prostate multifocal cancer with increase in Gleason primary pattern,[2]; [6],0%
same,percentage of patients with hemi-prostate multifocal cancer with increase in Gleason primary pattern,[2]; [7],0%
same,percentage of patients with hemi-prostate multifocal cancer with increase in Gleason primary pattern,[2]; [8],0%
same,% Imp. (hemi-prostate multifocal cancer with increase in Gleason primary pattern),"[2]; FT 2.5 mg, <= 18 mos",100%
same,% Imp. (hemi-prostate multifocal cancer with increase in Gleason primary pattern),"[2]; FT 2.5 mg, <= 36 mos",100%
same,% Imp. (hemi-prostate multifocal cancer with increase in Gleason primary pattern),"[2]; FT 2.5 mg, <= 48 mos",100%
same,percentage of patients with hemi-prostate multifocal cancer with increase in Gleason primary pattern,[2]; [9],2.9%
same,percentage of patients with hemi-prostate multifocal cancer with increase in Gleason primary pattern,[2]; [10],4.5%
same,percentage of patients with hemi-prostate multifocal cancer with increase in Gleason primary pattern,[2]; [11],6.7%
same,% Imp. (hemi-prostate multifocal cancer with increase in Gleason primary pattern),"[2]; FT 15 mg, <= 18 mos",76.8%
same,% Imp. (hemi-prostate multifocal cancer with increase in Gleason primary pattern),"[2]; FT 15 mg, <= 36 mos",79%
same,% Imp. (hemi-prostate multifocal cancer with increase in Gleason primary pattern),"[2]; FT 15 mg, <= 48 mos",75.5%
same,percentage of patients with hemi-prostate multifocal cancer with increase in Gleason primary pattern,[2]; [12],1.4%
same,percentage of patients with hemi-prostate multifocal cancer with increase in Gleason primary pattern,[2]; [13],2.2%
same,percentage of patients with hemi-prostate multifocal cancer with increase in Gleason primary pattern,[2]; [14],3.4%
same,% Imp. (hemi-prostate multifocal cancer with increase in Gleason primary pattern),"[2]; Pooled FT, <= 18 mos",88.8%
same,% Imp. (hemi-prostate multifocal cancer with increase in Gleason primary pattern),"[2]; Pooled FT, <= 36 mos",89.7%
same,% Imp. (hemi-prostate multifocal cancer with increase in Gleason primary pattern),"[2]; Pooled FT, <= 48 mos",87.5%
same,percentage of patients with cancer treatment with new multifocal with increased Gleason grade in the hemi-prostate,[3]; [6],4.9%
same,percentage of patients with cancer treatment with new multifocal with increased Gleason grade in the hemi-prostate,[3]; [7],10%
same,percentage of patients with cancer treatment with new multifocal with increased Gleason grade in the hemi-prostate,[3]; [8],17.4%
same,% Imp. (cancer treatment with new multifocal with increased Gleason grade in the hemi-prostate),"[3]; FT 2.5 mg, <= 18 mos",69%
same,% Imp. (cancer treatment with new multifocal with increased Gleason grade in the hemi-prostate),"[3]; FT 2.5 mg, <= 36 mos",57.4%
same,% Imp. (cancer treatment with new multifocal with increased Gleason grade in the hemi-prostate),"[3]; FT 2.5 mg, <= 48 mos",44.4%
same,percentage of patients with cancer treatment with new multifocal with increased Gleason grade in the hemi-prostate,[3]; [9],5.1%
same,percentage of patients with cancer treatment with new multifocal with increased Gleason grade in the hemi-prostate,[3]; [10],7.1%
same,percentage of patients with cancer treatment with new multifocal with increased Gleason grade in the hemi-prostate,[3]; [11],8.3%
same,% Imp. (cancer treatment with new multifocal with increased Gleason grade in the hemi-prostate),"[3]; FT 15 mg, <= 18 mos",67.7%
same,% Imp. (cancer treatment with new multifocal with increased Gleason grade in the hemi-prostate),"[3]; FT 15 mg, <= 36 mos",69.8%
same,% Imp. (cancer treatment with new multifocal with increased Gleason grade in the hemi-prostate),"[3]; FT 15 mg, <= 48 mos",73.5%
same,percentage of patients with cancer treatment with new multifocal with increased Gleason grade in the hemi-prostate,[3]; [12],5%
same,percentage of patients with cancer treatment with new multifocal with increased Gleason grade in the hemi-prostate,[3]; [13],8.6%
same,percentage of patients with cancer treatment with new multifocal with increased Gleason grade in the hemi-prostate,[3]; [14],12.8%
same,% Imp. (cancer treatment with new multifocal with increased Gleason grade in the hemi-prostate),"[3]; Pooled FT, <= 18 mos",68.4%
same,% Imp. (cancer treatment with new multifocal with increased Gleason grade in the hemi-prostate),"[3]; Pooled FT, <= 36 mos",63.4%
same,% Imp. (cancer treatment with new multifocal with increased Gleason grade in the hemi-prostate),"[3]; Pooled FT, <= 48 mos",59.1%
same,percentage of patients with cancer treatment with new multifocal and an increase in Gleason grade primary pattern in the hemi-prostate,[4]; [6],0%
same,percentage of patients with cancer treatment with new multifocal and an increase in Gleason grade primary pattern in the hemi-prostate,[4]; [7],0%
same,percentage of patients with cancer treatment with new multifocal and an increase in Gleason grade primary pattern in the hemi-prostate,[4]; [8],0%
same,% Imp. (cancer treatment with new multifocal and an increase in Gleason grade primary pattern in the hemi-prostate),"[4]; FT 2.5 mg, <= 18 mos",100%
same,% Imp. (cancer treatment with new multifocal and an increase in Gleason grade primary pattern in the hemi-prostate),"[4]; FT 2.5 mg, <= 36 mos",100%
same,% Imp. (cancer treatment with new multifocal and an increase in Gleason grade primary pattern in the hemi-prostate),"[4]; FT 2.5 mg, <= 48 mos",100%
same,percentage of patients with cancer treatment with new multifocal and an increase in Gleason grade primary pattern in the hemi-prostate,[4]; [9],2.6%
same,percentage of patients with cancer treatment with new multifocal and an increase in Gleason grade primary pattern in the hemi-prostate,[4]; [10],3.6%
same,percentage of patients with cancer treatment with new multifocal and an increase in Gleason grade primary pattern in the hemi-prostate,[4]; [11],4.2%
same,% Imp. (cancer treatment with new multifocal and an increase in Gleason grade primary pattern in the hemi-prostate),"[4]; FT 15 mg, <= 18 mos",75.2%
same,% Imp. (cancer treatment with new multifocal and an increase in Gleason grade primary pattern in the hemi-prostate),"[4]; FT 15 mg, <= 36 mos",79.5%
same,% Imp. (cancer treatment with new multifocal and an increase in Gleason grade primary pattern in the hemi-prostate),"[4]; FT 15 mg, <= 48 mos",77.7%
same,percentage of patients with cancer treatment with new multifocal and an increase in Gleason grade primary pattern in the hemi-prostate,[4]; [12],1.3%
same,percentage of patients with cancer treatment with new multifocal and an increase in Gleason grade primary pattern in the hemi-prostate,[4]; [13],1.7%
same,percentage of patients with cancer treatment with new multifocal and an increase in Gleason grade primary pattern in the hemi-prostate,[4]; [14],2.1%
same,% Imp. (cancer treatment with new multifocal and an increase in Gleason grade primary pattern in the hemi-prostate),"[4]; Pooled FT, <= 18 mos",87.6%
same,% Imp. (cancer treatment with new multifocal and an increase in Gleason grade primary pattern in the hemi-prostate),"[4]; Pooled FT, <= 36 mos",90.3%
same,% Imp. (cancer treatment with new multifocal and an increase in Gleason grade primary pattern in the hemi-prostate),"[4]; Pooled FT, <= 48 mos",88.8%
same,"effect on BCL pathways (activation of BIK, HRK, BCL2L10 and BCL3)",[5],stimulates
same,"effect on caspase pathways (activation of caspases 7, 8, and 10, caspase recruitment domains 6, 11, and 14, and DIABLO)",[5],stimulates
same,"effect on tumor necrosis factor pathways (activation of TNF1, TNFSF6, TNFSF8, TNFSF9, CD70 ligands, and TNFRSF19L, TNFRSF25, TRAF2, TRAF3, TRAF4, TRAF6 receptors)",[5],stimulates
